Assay results published in US4771071A, “Antihypercholesterolemic compounds” (Merck & Co., Inc., priority 1986, dated 1988).

Legend:
[1] = Stability of free hydroxy acid on standing; assay type: physicochemical
Protocol: The sodium salt of the compound II from Example 11 is redissolved in 2 ml of ethanol-water (1:1) and added to 10 ml of 1N hydrochloric acid from which the hydroxy acid is extracted with ethyl acetate. The latter solvent is washed once with water, dried, and removed in vacuo with a bath temperature not exceeding 30° C.

[2] = tested on: HMG-CoA reductase; assay: HMG-CoA reductase inhibition assay (in vitro); assay type: biochemical; conditions: IC50 compared with compactin determined simultaneously, compactin assigned 100; tested as sodium salt of dihydroxy acid form; solubilized rat liver microsomal enzyme
Protocol: The intrinsic HMG-CoA reductase inhibition activityof the claimed compounds is measured in the in vitro protocol published in J. Med. Chem., 28, p. 347-358 (1985) and described below:
Male Holtzman Sprague-Dawley rats (225-250 g) were kept on reversed lighting and fed Purina rat chow containing 3% cholestyramine for 7 days preceding their sacrifice by CO2 asphyxiation. Livers were removed 6 hours into the dark cycle and used immediately to prepare microsomes. […]
Test compounds or compactin (after first being converted to the sodium salt of their dihydroxy acid form in situ by addition of 1N NaOH (1 equivalent) were added to the assay system in 10-μL volumes at multiconcentration levels. After a 40-minutes incubation at 37° C. with shaking and exposure to air, the reaction was stopped by the addition of 0.4 mL of 8N HCl. After an additional 30-minute incubation at 37° C. to ensure the complete lactonization of mevalonic acid to mevalonolactone, 0.2 ml of the mixture was added to an 0.5×5.0 cm column containing 100-200 mesh BioRex 5, chloride form (Bio-Rad), wetted with distilled water, as described by Alberts et al., [J. Proc. Natl. Acad. Sci. U.S.A., 1980, 77, 3957]. […] Five milliliters of Aquasol-2 (New England Nuclear) was added to each vial, and radioactivity was measured in a Packard Tri Carb Prias scintillation counter. […]

Relative Potency [2] | Molecule | stability of hydroxy acid (reversion to lactone) [1]
 | COC(=O)C(C)(C)C(=O)O[C@H]1C[C@@H](C)C=C2C=C[C@H](C)[C@H](CC[C@@H](O)C[C@@H](O)CC(=O)O)[C@H]21 [Example 13] | slowly reverts to the lactone on standing
87 | 6(R)-[2-[8(S)-(2,2-dimethyl-3-methoxy-3-oxopropionyloxy)-2(S),6(R)-dimethyl-1,2,6,7,8,8a(R)-hexahydronaphthyl-1(S)]ethyl]-4(R)-hydroxy-3,4,5,6-tetrahydro-2H-pyran-2-one [Example 1] | 
59 | 6(R)-[2-[8(S)-(2,2-Dimethyl-3-methoxycarbonylpropionyloxy)-2(S),6(R)-dimethyl-1,2,6,7,8,8a-(R)-hexahydronaphthyl-1(S)]ethyl]-4(R)-hydroxy-3,4,5,6-tetrahydro-2H-pyran-2-one [Example 2] | 
